Measurements as given in patent US11957766B2, “HNQO1-activatable fluorescent probe for imaging cancer cells in-vitro and in-vivo” (Texas Tech University System, priority 2019, dated 2024).

What was measured:
NQO1 in A549 cells = assay: siRNA knockdown of NQO1 and NIR-ASM activation; type: cell-based, human; details: NQO1 expression silenced more than 70%, 60 min incubation, compared with the control
Procedure: Chemical and genetic approaches confirm the specificity of NIR-ASM for NQO1 in live tumor cells. A fluorescence probe with high sensitivity, simple operation, and excellent specificity will be an asset for the detection of NQO1 in situ. To assess the substrate selectivity of NIR-ASM for NQO1, both A549 and H460 cells were pretreated with 100 nM of NQO1 inhibitor ES936 for 6 h, before incubating with 10 μM NIR-ASM. […] The effect of ES936 on endogenous NQO1 activity and subsequent reactivity with NIR-ASM was also determined by flow cytometry. […] The presence of NQO1 protein in the transfected MDA-MB-231 cells and its absence in the untransfected control was confirmed by immunoblotting (FIG. 13E). Subsequently, the NQO1-negative and positive MDA-MB-231 cell lines were incubated with NIR-ASM and analyzed by fluorescence microscopy and flow cytometry for activation of the probe.
Knockdown of NQO1 by small interfering RNA (siRNA). NQO1 and scrambled or control siRNAs were introduced into cells using the X-tremeGENE siRNA transfection reagent (Roche) according to the manufacturer's instructions. 10 μl of transfection reagent was mixed with 80 pmol of siRNA and added to A549 cells in six-well plates. siRNA transfection efficiency was confirmed with Western blotting.

[1] = test system: A549 and MDA-MB-231 tumors; assay: In vivo imaging of NQO1-positive (A549) and -negative (MDA-MB-231) xenografts in the same animal with NIR-ASM; design: species or system nude mice; details: intravenous, tumors of 200 mm^3
Procedure: Additionally, to validate the NQO1-specific activation of NIR-ASM to generate fluorescence, the inventors generated NQO1-positive (A549) and -negative (MDA-MB-231) xenografts in the same animal by injecting the corresponding tumor cells on the left and right flanks of the nude mice respectively. When tumors reached a volume of 200 mm^3, NIR-ASM was administered through intravenous injection and the animals were imaged using the In Vivo imager.
In vivo bioimaging. The animal study protocol was approved by the Institutional Animal Use and Care Committee (IACUC), Texas Tech University Health Sciences Center, Protocol number: 07050. All experimental protocols used in this study were approved by IACUC, Texas Tech University Health Sciences Center and all the methods were carried out according to the committee guidelines. Female athymic nude mice (nu/nu, 4-6 weeks) were purchased from Charles River Laboratories (Wilmington, MA, USA). BALB/c57 mice were provided by Dr. Constantinos Mikelis of our University. To establish A549 or MDA-MB-231 xenografts, a total of 5×10^6 cells (in 0.1 ml of serum-free media and Matrigel (1:1)) were subcutaneously injected into the flanks of the mice. […] All animals were monitored for activity, physical condition, body weight, and tumor growth. […] Fluorescence represented in log values of radiance is photons per second per square centimeter per steradian.

NQO1 = NQO1 (Homo sapiens, UniProt P15559); assay: Selectivity of NQ-DCP towards hNQO1 over other biomolecules/enzymes; type: biochemical; details: 10 μM probe, 30 min; GSH, ALDH1A1, GGT, GPx, APE1, CBS, CTSL, GST-pi, NTR, NADH
NQO1, sequence (P15559 whole entry): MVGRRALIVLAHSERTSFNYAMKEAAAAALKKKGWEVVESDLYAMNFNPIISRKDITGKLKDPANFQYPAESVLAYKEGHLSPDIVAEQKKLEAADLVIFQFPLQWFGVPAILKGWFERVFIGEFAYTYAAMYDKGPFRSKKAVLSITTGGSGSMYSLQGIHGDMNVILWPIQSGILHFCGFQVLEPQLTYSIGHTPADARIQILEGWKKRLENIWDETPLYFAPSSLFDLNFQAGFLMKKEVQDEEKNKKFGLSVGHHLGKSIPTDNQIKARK
Procedure: Selectivity of NQ-DCP Towards hNQO1. The specificity of NQ-DCP probe towards hNQO1 was studied by determining its reactivity towards various biomolecules such as the glutathione (GSH, 1 mM), aldehyde dehydrogenase 1 (ALDH1A1, 2.5 μg/mL), gamma-glutamyl transferase (GGT, 10 U), glutathione Peroxidase (GPx, 10 U), apurinic/apyrimidinic endonuclease (APE1, 10 U), cystathionine-β-synthase (CBS, 2 μg/mL), cathepsin L (CTSL, 2 μg/mL), glutathione S-transferase (GST-pi, 2 μg/mL), nitroreductase (NTR, 2 μg/mL) and NADH (100 μM) alone or the combination of and NQO1 (2.5 μg/mL). […] To gain more insight into the specificity of the probe towards hNQO1, the enzyme was pre-treated with ES936 (0-100 nM), a well-known hNQO1 inhibitor [39] and then incubated with NQ-DCP.
Selectivity Evaluation. To study the interference, NQ-DCP was incubated with various biologically relevant analytes such as thiols and other enzymes for 30 min with or without the addition of 100 μM NADH. Fluorescence spectra were analyzed to determine NQ-DCP specificity against hNQO1.

[2] = test system: DAOY, T98G, and U87MG cells; assay: Fluorescence microscopy of NQ-DCP in hNQO1 positive cancer cells; type: cell-based, human
Procedure: Visualization of Cancer Cells by Fluorescence Imaging of hNQO1. […] The cytotoxicity of NQ-DCP was initially evaluated in cultured brain tumor (DAOY, T98G, and U87MG) and normal (astrocytes) cells to assess its biocompatibility using the resazurin reduction assay. […] Cells were incubated with NQ-DCP (10 μM) for 60 min, washed with PBS and were imaged under a fluorescence microscope.
Cell Culture, Fluorescence Imaging, and Flow Cytometry Analysis. Brain tumor cells and astrocytes were grown in Dulbecco's modified Eagle's (DMEM) medium containing 10% Fetal Bovine Serum and 1% penicillin/streptomycin in a humidified atmosphere of 5% CO2 at 37° C. For fluorescence imaging, initially, cells were seeded into 6-well plate and cultured overnight in respective media at 37° C. Media was replaced with fresh medium containing 10 μM NQ-DCP and incubated at 37° C. for 60 min and then the medium was replaced with PBS and live cells were imaged using a fluorescence microscope. For inhibitor study, cells were pretreated with NQO1 inhibitor ES936 (100 nM) for 6 h before adding the NQ-DCP. For determining endogenous hNQO1 activity in cancer cells using flow cytometry, about 10×10^4 cells were incubated with 10 μM of NQ-DCP for 60 min and were analyzed using flow cytometry.

Row | Structure (SMILES) | NIR-ASM fluorescence after siRNA silencing of NQO1 (NQO1 in A549 cells) | fluorescence signal, NQO1-positive A549 tumor [1] | fluorescence signal, NQO1 negative MDAMB-231 tumors [1] | selectivity for hNQO1 over the other enzymes/substrates tested (NQO1) | fluorescence signal in cancer cells ([2]; 10 μM, 60 min) | cell permeability ([2]; inferred from intracellular activation)
1 | CC1=C(C)C(=O)C(C(C)(C)CC(=O)Nc2ccc(/C=C/C3=CC(=C(C#N)C#N)CC(C)(C)C3)cc2)=C(C)C1=O [NIR-ASM, (E)-N-(4-(2-(3-(dicyanomethylene)-5,5-dimethylcyclohex-1-en-1-yl)vinyl)phenyl)-3-methyl-3-(2,4,5-trimethyl-3,6-dioxocyclohexa-1,4-dien-1-yl)butanamide] | almost a total loss | observed only from the A549 tumor | no signal was discernible |  |  | 
2 | CC1=C(C)C(=O)C(C(C)(C)CC(=O)Oc2ccc(/C=C/C3=CC(=C(C#N)C#N)CC(C)(C)C3)cc2)=C(C)C1=O [NQ-DCP] |  |  |  | high selectivity | bright fluorescence signals | good cell permeability
